Results taken from PMC8307506, “Identification of Dihydromyricetin and Metabolites in Serum and Brain Associated with Acute Anti-Ethanol Intoxicating Effects in Mice” (International Journal of Molecular Sciences, 2021).
“Also recorded” adds a separate entry of the source.

Experiments:
α5β3γ2 GABAA receptors = target: T1, α5β3γ2 GABAA receptors (Homo sapiens, UniProt P18507+P28472+P31644); test: Two-electrode voltage clamp electrophysiology in Xenopus oocytes in the presence of GABA; format: cell-based; conditions: compound 10 µM, GABA 10 µM
T1 construct: expressed in transfected cells; host or cells: Xenopus oocytes (injected with cDNA)
Method: Xenopus oocytes were stored in incubation media (pH 7.5), consisting of ND96 supplemented with 2 mM sodium pyruvate, […] gentamycin, and 10 mL heat inactivated HyClone horse serum. Stage 4 to 5 oocytes were injected with 40 nL of cDNA coding for α5, β3, and γ2 subunits in a ratio of 1:1:10, utilizing a Drummond Nanoject III. Injected oocytes were stored at 18 °C and used in electrophysiology studies within 2–7 days of injection.
Whole cell two-electrode voltage clamp (TEVC) recording were conducted on oocytes in the presence of GABA, according to previously reported methods. Oocytes were voltage clamped at a membrane potential of −70 mV. The oocyte recording chamber was continuously perfused with modified bath solution (MBS) with select compound (10 µM) and GABA (10 µM), with a final concentration of 1% DMSO [22, 44]. […] Oocytes were perfused at a rate of 3 mL/min. Electrophysiology recordings were conducted in triplicate compound for each compound. The change of GABAAR activity was determined by comparison of GABAAR potentiation to the EC20 with control saline in the presence of GABA.
Pharmacokinetic parameters were calculated using noncompartmental analysis. Elimination half-life (T1/2) was calculated with R software from the linear regression of the terminal phase of the log serum concentration-time curve. The AUC0→24 was calculated with OriginLab software by trapezoidal analysis of the serum concentration-time plot. Cmax and Tmax were determined directly from observed data. Data are expressed as mean ± SEM. Statistical significance between AUC0→24 among test groups was calculated with an independent t-test (GraphPad software, San Diego, CA, USA). Time to LORR was analyzed by repeated measured ANOVA. Tolerance was determined by mean split in LORR response and confirmed with paired t-test (Week 1 vs. Week 8). Statistical significance of serum concentrations for individual time points was calculated using a two-way analysis of variance (ANOVA) analysis. Post hoc Bonferroni tests were performed when justified. Statistical significance of electrophysiology results compound GABAergic modulation was determined using a paired t-test (Vehicle control vs. Compound, GraphPad software, San Diego CA, USA). p < 0.05 was considered significant.

[1] = Identification of DHM metabolites in serum and brain by UPLC-QqQ/MS; format: in vivo, mice; conditions: for Detection of metabolite in brain samples: male and female mice 15 min post DHM IP 50 mg/kg; for Detection of metabolite in serum: mice, following DHM 50 mg/kg IP and PO
Method: Eight-week-old male and female C57BL/6J mice (Jackson’s Laboratories, Bar Harbor, ME, USA) were housed 4 mice to a cage (separated by sex) and maintained on 12-h light, 12-h dark cycles (lights on at 0700 h) in the animal facility at the Department of Animal Sciences, Rutgers University. Following 1-week acclimation, animals were given ad libitum access to water and a polyphenol-free diet (PFD; 3.82 kcal/g, 10% fat, 20% protein, 70% carbohydrate; D12450H; Research Diets, Inc., New Brunswick, NJ, USA) for at least 10 days. For PK studies, after an overnight fast, mice were administered 50 mg/kg DHM (dissolved in 0.9% saline with 10% DMSO) by either IP injection or oral gavage. Oral gavage was performed using single-use, sterile plastic feeding tubes for mice (20 ga × 30 mm; cat# FTP-20-30, Instech Laboratories, (Plymouth Meeting, PA, USA). Mice were deeply anesthetized with 5% isoflurane mixed with oxygen, and blood was collected by cardiac puncture. Following cardiac puncture, animals were exsanguinated and transcardial perfusion with 0.9% saline was performed to ensure blood removal from the brain tissue. Blood and brain samples were collected from a total of 85 mice at 0.25, 0.75, 1.5, 3, 6, 12, 24 h (3–4 mice for each sex and timepoint). Tissues were immediately homogenized with 0.2% formic acid at 1:2 (w/v), and frozen at −80 °C until analysis. Blood was centrifuged at 3000× g for 10 min at 4 °C to isolate serum. For efficacy studies, mice (n = 8/sex) were fasted at 5 h prior to Ethanol gavage 5 g/kg (37% Ethanol in water). DHM 50 mg/kg IP (dissolved in 0.9% saline with 10% DMSO) was administered at 0, 15, 45, 90 and 180 min prior to Ethanol oral gavage. Each mouse was tested at each time point 7 days apart over 6-week period. At the time of Ethanol gavage, mice were placed in oversized conical holders (L: 152 mm X W: 37 mm) and observed for ability to return upright upon being placed in a supine position. Duration of LORR was determined by ability to return upright 3 times within 30 s. To determine whether ethanol-induced tolerance developed, one week (Week 1; Baseline) prior to the 6-week repeated DHM dosing study all mice were oral dose with ethanol (5 g/kg) without any IP injection and LORR was measured. Mice were then re-tested in a similar fashion with oral ethanol 1 week after the DHM 6-week period (Week 8; Post). […] All animal studies were approved by the Institutional Animal Care and Use Committee of Rutgers University (Bello; PROTO999900014, OLAW #A3262-01, 15 March 2017) and complied with NIH Guide for the Care and Use of Laboratory Animals.
All serum samples were stored at −80 °C and conditioned to room temperature prior to analysis. An aliquot of 100 µL of serum, 20 µL 4M HCl, and 50 µL of internal standard (IS) solution (417 ng/mL isoquercetin in EtOAc) were combined in an Eppendorf tube. An aliquot of 500 µL of EtOAc was added and samples were vortexed for 30 s. Samples were then centrifuged at 3000× g for 2 min and the supernatant transferred to a glass vial. Samples were extracted 2 more times with EtOAc and the supernatant added to the corresponding vial containing 10 µL of 2% ascorbic acid in methanol (MeOH). Samples were then dried under vacuum, reconstituted with 100 µL of 45% MeOH in water with 0.1% formic acid (FA), centrifuged at 16,000× g for 10 min and transferred to an HPLC vial for analysis.
Whole brain samples were homogenized in FA. All brain homogenates were stored at −80 °C and conditioned to room temperature prior to analysis. An aliquot of 300 µL of brain homogenate was added to 50 µL IS solution (417 ng/mL in EtOAc) and 500 µL of EtOAc in an Eppendorf tube. Samples were then vortexed for 30 s and sonicated for 1 min. Samples were centrifuged for 2 min at 3000× g and the supernatant transferred to a glass vial with 10 µL of 2% ascorbic acid in methanol. Samples were extracted two more times with 500 µL EtOAc and the supernatant transferred to the corresponding vial and dried under vacuum. […]

T1 sequence (P31644 32-462): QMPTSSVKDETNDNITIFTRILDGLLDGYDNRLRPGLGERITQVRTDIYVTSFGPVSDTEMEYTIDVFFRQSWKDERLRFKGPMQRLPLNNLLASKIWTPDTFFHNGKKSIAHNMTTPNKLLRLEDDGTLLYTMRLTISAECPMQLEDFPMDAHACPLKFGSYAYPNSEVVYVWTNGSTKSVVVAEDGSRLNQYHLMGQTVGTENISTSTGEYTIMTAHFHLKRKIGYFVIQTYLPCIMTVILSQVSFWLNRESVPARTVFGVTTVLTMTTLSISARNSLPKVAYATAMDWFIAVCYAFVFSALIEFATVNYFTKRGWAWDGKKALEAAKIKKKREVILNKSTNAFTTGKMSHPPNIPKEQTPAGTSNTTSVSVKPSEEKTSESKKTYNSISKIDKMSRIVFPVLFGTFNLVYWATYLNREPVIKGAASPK
T1 sequence (P28472 26-473): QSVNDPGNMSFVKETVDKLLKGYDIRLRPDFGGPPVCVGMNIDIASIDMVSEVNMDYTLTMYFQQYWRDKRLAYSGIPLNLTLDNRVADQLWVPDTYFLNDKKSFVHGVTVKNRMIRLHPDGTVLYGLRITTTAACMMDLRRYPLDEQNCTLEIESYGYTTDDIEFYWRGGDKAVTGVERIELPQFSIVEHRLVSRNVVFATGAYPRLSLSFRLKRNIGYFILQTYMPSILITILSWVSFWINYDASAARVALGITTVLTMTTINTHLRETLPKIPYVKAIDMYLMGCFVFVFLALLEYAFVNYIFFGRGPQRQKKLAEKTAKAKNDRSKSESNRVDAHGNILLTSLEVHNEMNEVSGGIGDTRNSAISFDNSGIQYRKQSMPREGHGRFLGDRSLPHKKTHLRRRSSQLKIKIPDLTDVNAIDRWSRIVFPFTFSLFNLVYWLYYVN
T1 sequence (P18507 40-475): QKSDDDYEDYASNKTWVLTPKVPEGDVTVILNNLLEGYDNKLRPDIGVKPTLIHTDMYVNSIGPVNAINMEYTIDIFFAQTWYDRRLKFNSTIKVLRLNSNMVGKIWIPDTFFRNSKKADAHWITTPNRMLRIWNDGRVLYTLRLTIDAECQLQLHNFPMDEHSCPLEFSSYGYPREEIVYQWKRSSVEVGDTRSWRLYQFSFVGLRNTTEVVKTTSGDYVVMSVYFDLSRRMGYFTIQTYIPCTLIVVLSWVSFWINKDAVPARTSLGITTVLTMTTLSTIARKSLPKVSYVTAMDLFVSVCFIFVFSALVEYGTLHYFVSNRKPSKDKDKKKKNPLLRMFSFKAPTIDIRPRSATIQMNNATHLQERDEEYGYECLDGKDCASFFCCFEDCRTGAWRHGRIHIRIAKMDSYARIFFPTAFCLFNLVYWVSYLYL

Molecule | GABAAR potentiation (α5β3γ2 GABAA receptors) | Detection of metabolite in brain samples [1] | Detection of metabolite in serum [1] | GABAAR potentiation (α5β3γ2 GABAA receptors; mean ± SEM)
COc1c(O)cc([C@H]2Oc3cc(O)cc(O)c3C(=O)[C@@H]2O)cc1O (racemic) [4′-Me-DHM, 4′-O-methyl-dihydromyricetin] | −12.6% | trace levels | detected | 
O=C1c2c(O)cc(O)cc2OC(c2cc(O)cc(O)c2)C1O (stereo not drawn) [4′-DeOH-DHM, 4′-dehydroxy-dihydromyricetin] | +5.2% |  | detected; also recorded: trace levels | +5.3 ± 2.0
COc1cc(C2Oc3cc(O)cc(OC4OC(C(=O)O)C(O)C(O)C4O)c3C(=O)C2O)cc(O)c1O (stereo not drawn) [G-3′-Me-DHM, glucuronide-3′-O-methoxy-dihydromyricetin] |  |  | detected | 
COc1c(O)cc(C2Oc3cc(O)cc(OC4OC(C(=O)O)C(O)C(O)C4O)c3C(=O)C2O)cc1O (stereo not drawn) [G-4′-Me-DHM] |  |  | detected | 
glucuronide-dehydroxy-dihydromyricetin [G-DeOH-DHM] |  |  | detected | 
O=C1c2c(OC3OC(C(=O)O)C(O)C(O)C3O)cc(O)cc2OC(c2cc(O)c(O)c(O)c2)C1O (stereo not drawn) [G-DHM, glucuronide-dihydromyricetin] |  |  | detected | 
COc1cc(C2Oc3cc(O)cc(O)c3C(=O)C2O)cc(O)c1O (stereo not drawn) [3′-Me-DHM, 3′-O-methyl-dihydromyricetin] |  | trace levels | detected | 
